Experimental data published in US4008331A, “Antidepressant 1,1a,6,10b-tetrahydrodibenzo-[a,e]-cyclopropa-[c]-cyclohepten-6-substitu ted oximes” (E. I. Du Pont de Nemours and Company, priority 1976, dated 1977).
Where a name gives a salt, the structure may show the parent alone. Read-outs that look alike come from different tables or passages of the source.

Assays:
[1] = system: tetrabenazine-induced depression in mice; assay: Antagonism of tetrabenazine-induced sedation and depression in mice, orally at 1 hour post-drug; assay type: in vivo, Carworth CF1 S female mice; details: for ED50: Mus musculus, po, 1 h
Method: Relief from ptosis was recorded when exactly 2 seconds after placing the mouse facing the observer, lid closure was less than 50% in both eyes.

[2] = Hydrolytic stability in 0.5M hydrochloric acid at 25° for 20 hrs (NMR of residue); assay type: physicochemical
Method: For example, a solution of 0.6 g of N-(2-methylaminoethyl)-1,1a,6,10b-tetrahydrodibenzo[a,e]cyclopropa[c]cyclohepten-6-imine in 20 ml of 0.5M hydrochloric acid was stirred at 25° for 20 hrs. The solution was cooled and 10 ml of 10% sodium hydroxide solution was added, and the oil was twice extracted with a solution of 25% methylene chloride in ether. The combined organic extracts were thoroughly washed with saturated brine, dried and solvent removed. The NMR spectrum of the residue (0.5 g) indicated about 40% decomposition of the imine to the ketone occurred.
This stability to hydrolysis is advantageous in preparation, storage, and use of pharmaceutical dosage forms.

[3] = mice, oral, 1 hour post-drug, tetrabenazine 32 mg/kg intraperitoneally 30 minutes after compound, read-out: ED50 for prevention of exploratory loss
[4] = mice, oral, 1 hour post-drug, tetrabenazine 32 mg/kg intraperitoneally 30 minutes after compound, read-out: ED50 for prevention of ptosis
[5] = mice, oral, 1 hour post-drug, tetrabenazine 32 mg/kg intraperitoneally 30 minutes after compound, 60 min
[6] = mice, oral, 1 hour post-drug, tetrabenazine 32 mg/kg intraperitoneally 30 minutes after compound, hydrochloride, 60 min

Row | Compound | ED50 [1, 3] [mg/kg] | ED50 [1, 4] [mg/kg] | also measured
1 | CN(C)CCC=C1c2ccccc2CCc2ccccc21 [amitriptyline, reference compound] | 4.7 | 1.7 | –
2 | CN(C)CCCON=C1c2ccccc2C2CC2c2ccccc21 (centres unmarked) [H CH2 CH2 CH2 N(CH3)2, 1,1a,6,10b-Tetrahydrodibenzo[a,e]cyclopropa[c]cyclohepten-6-one 0-[3-(dimethylamino)propyl]oxime] | 15.6 | 9 | –
3 | NCCON=C1c2ccccc2C2CC2c2ccccc21 (centres unmarked) [H CH2 CH2 NH2 . HCl] | – | 0.09 | ED50 for prevention of exploratory loss [1, 5]: 0.10 mg/kg
4 | c1ccc2c(c1)C(=NOCCN1CCCC1)c1ccccc1C1CC21 (centres unmarked) | 10.4 | 4.8 | –
5 | NCCON=C1c2ccccc2C2CC2c2ccccc21 (centres unmarked) [H CH2 CH2 NH2, 1,1a,6,10b-Tetrahydrodibenzo[a,e]cyclopropa[c]cyclohepten-6-one 0-(2-aminoethyl)oxime] | – | – | ED50 for prevention of ptosis ([1]; mice, oral, 1 hour post-drug, tetrabenazine 32 mg/kg intraperitoneally 30 minutes after compound): 0.09 mg/kg; ED50 for prevention of exploratory loss [1, 5]: 0.25 mg/kg
6 | c1ccc2c(c1)C(=NOCCN1CCCCC1)c1ccccc1C1CC21 (centres unmarked) | 4.7 | 1.7 | –
7 | CC(C)N(CCON=C1c2ccccc2C2CC2c2ccccc21)C(C)C (centres unmarked) [H CH2 CH2 N[CH(CH3)2]2, 1,1a,6,10b-Tetrahydrodibenzo[a,e]cyclopropa[c]cyclohepten-6-one 0-[2-(diisopropylamino)ethyl]oxime] | 5.2 | 3.3 | –
8 | CN(C)CCCN1c2ccccc2CCc2ccccc21 [imipramine, reference compound] | – | – | ED50 ([1]; read-out: ED50 for prevention of exploratory loss): 3 mg/kg; ED50 ([1]; read-out: ED50 for prevention of ptosis): 2.5 mg/kg
9 | CNCCN=C1c2ccccc2C2CC2c2ccccc21 (centres unmarked) [N-(2-methylaminoethyl)-1,1a,6,10b-tetrahydrodibenzo[a,e]cyclopropa[c]cyclohepten-6-imine, reference compound] | – | – | degraded at 20 h ([2]; 0.5 m hcl, 0.6 g in 20 ml of 0.5M hydrochloric acid, by NMR, read-out: decomposition of the imine to the ketone): ~40%
10 | c1ccc2c(c1)C(=NOCCN1CCOCC1)c1ccccc1C1CC21 (centres unmarked) | 3 | 1 | –
11 | CN(C)CCON=C1c2ccccc2C2CC2c2ccccc21 (centres unmarked) [H CH2 CH2 N(CH3)2, 1,1a,6,10b-Tetrahydrodibenzo[a,e]cyclopropa[c]cyclohepten-6-one 0-[2-(dimethylamino)ethyl]oxime] | 2.3 | 0.4 | –
12 | CNCCON=C1c2ccccc2C2CC2c2ccccc21 (centres unmarked) [H CH2 CH2 NHCH3, 1,1a,6,10b-Tetrahydrodibenzo[a,e]cyclopropa[c]cyclohepten-6-one 0-[2-(methylamino)ethyl]oxime] | 1.9 | 0.33 | decomposition (in words) ([2]; same procedure: 0.5M hydrochloric acid): no detectable decomposition
13 | CN(C)CCON=C1c2ccccc2C2CC2c2ccccc21 (centres unmarked) [H CH2 CH2 N(CH3)2 . HCl, 1,1a,6,10b-Tetrahydrodibenzo[a,e]cyclopropa[c]cyclohepten-6-one 0-[2-(dimethylamino)ethyl]oxime hydrochloride] | – | – | ED50 for prevention of exploratory loss [1, 6]: 1.4 mg/kg; ED50 for prevention of ptosis [1, 6]: 0.5 mg/kg
